Columns and labels:
HepG2 = experiment: MTT anti-proliferative assay, HepG2; assay type: cell-based; details: for IC50: Homo sapiens, HepG2, 72 h, read-out: IC50 HepG2; for fold times more toxic in HepG-2 than in VERO normal cells: HepG-2 versus VERO
HCT-116 = experiment: MTT anti-proliferative assay, HCT-116; assay type: cell-based; details: for IC50: Homo sapiens, HCT-116, 72 h, read-out: IC50 HCT116; for folds toxic in HCT-116 than in normal VERO cells: HCT-116 versus VERO
MCF-7 = experiment: MTT anti-proliferative assay, MCF-7; assay type: cell-based; details: for IC50: Homo sapiens, MCF7, 72 h, read-out: IC50 MCF-7; for folds toxic in MCF-7 than in ordinary VERO cells: MCF-7 versus VERO
A549 = experiment: MTT anti-proliferative assay, A549; assay type: cell-based; details: for IC50: Homo sapiens, A549, 72 h, read-out: IC50 A549; for folds toxic in A549 than in ordinary VERO cells: A549 versus VERO
VEGFR-2 = VEGFR-2 (Homo sapiens, UniProt P35968); experiment: VEGFR-2 kinase inhibitory assay; assay type: biochemical
Sequence of VEGFR-2 (P35968 20-1356): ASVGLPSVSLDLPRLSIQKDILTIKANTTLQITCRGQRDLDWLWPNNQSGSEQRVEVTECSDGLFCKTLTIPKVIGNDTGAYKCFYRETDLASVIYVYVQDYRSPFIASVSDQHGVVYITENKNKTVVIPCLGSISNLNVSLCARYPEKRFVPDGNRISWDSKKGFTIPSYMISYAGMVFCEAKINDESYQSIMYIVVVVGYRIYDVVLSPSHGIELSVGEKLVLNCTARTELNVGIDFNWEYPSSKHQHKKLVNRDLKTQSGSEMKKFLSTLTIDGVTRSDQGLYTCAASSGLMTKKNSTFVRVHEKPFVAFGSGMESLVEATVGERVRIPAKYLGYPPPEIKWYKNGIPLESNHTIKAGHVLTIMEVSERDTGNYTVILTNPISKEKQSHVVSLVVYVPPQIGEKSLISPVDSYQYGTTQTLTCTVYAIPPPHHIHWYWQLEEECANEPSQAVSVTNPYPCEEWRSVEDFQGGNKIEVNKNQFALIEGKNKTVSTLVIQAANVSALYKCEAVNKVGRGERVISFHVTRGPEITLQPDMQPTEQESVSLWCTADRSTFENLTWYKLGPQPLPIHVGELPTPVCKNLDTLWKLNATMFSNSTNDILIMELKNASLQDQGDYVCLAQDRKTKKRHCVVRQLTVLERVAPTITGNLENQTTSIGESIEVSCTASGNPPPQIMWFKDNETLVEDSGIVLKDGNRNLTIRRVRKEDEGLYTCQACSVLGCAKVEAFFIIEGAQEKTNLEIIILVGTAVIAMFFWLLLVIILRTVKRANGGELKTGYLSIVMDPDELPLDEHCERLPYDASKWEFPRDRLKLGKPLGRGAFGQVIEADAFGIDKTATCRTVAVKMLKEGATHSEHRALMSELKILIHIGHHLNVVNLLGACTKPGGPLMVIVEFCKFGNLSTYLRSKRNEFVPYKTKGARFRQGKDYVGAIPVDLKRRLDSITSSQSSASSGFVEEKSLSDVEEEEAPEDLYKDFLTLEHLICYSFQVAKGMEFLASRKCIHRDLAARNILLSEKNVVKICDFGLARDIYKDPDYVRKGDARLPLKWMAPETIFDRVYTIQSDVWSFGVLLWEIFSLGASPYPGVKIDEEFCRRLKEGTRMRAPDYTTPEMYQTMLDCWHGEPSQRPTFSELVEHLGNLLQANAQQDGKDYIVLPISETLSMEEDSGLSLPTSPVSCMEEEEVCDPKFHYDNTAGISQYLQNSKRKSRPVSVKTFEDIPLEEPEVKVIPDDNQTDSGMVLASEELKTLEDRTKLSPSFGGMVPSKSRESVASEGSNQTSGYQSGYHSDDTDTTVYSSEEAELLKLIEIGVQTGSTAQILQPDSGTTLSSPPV

EGFR^T790M = EGFR^T790M (Homo sapiens, UniProt P00533, T790M); experiment: EGFR^T790M kinase inhibitory assay; assay type: biochemical
Sequence of EGFR^T790M (P00533 25-1210 T790M): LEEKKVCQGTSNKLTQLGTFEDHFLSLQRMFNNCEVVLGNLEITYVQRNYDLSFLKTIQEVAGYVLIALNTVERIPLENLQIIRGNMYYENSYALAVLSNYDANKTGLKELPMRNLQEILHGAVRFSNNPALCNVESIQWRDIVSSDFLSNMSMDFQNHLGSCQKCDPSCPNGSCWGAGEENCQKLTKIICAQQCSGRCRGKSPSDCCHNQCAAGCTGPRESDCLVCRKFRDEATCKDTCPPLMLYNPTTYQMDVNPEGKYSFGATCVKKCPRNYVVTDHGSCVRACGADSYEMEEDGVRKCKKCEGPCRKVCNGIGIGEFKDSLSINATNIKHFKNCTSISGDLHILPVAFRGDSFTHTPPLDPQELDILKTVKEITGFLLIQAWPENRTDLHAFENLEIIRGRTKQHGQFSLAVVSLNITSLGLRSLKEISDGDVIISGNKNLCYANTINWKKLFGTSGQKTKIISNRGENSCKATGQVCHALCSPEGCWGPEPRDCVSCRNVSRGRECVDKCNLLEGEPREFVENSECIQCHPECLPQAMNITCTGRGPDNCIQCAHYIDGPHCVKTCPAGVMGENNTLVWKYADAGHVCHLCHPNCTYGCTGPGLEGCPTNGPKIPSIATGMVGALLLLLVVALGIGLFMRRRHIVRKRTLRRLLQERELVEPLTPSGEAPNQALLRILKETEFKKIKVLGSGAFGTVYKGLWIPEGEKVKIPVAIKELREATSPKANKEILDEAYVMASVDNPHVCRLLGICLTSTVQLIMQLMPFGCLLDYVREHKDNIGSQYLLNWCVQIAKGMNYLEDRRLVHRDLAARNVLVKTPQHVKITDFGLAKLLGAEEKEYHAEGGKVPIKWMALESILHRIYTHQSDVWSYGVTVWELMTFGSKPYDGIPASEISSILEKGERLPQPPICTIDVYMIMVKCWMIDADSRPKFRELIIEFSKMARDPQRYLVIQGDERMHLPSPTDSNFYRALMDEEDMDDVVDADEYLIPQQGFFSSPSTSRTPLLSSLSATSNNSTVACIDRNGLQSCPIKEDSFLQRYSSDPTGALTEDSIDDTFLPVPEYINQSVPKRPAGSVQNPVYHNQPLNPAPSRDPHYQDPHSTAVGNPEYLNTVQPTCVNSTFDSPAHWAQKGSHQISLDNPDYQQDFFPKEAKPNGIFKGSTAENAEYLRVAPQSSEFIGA

Structure (SMILES) | IC50 (HepG2) | IC50 (HCT-116) | IC50 (MCF-7) | IC50 (A549) | IC50 (VEGFR-2) | IC50 (EGFR^T790M) | fold times more toxic in HepG-2 than in VERO normal cells (HepG2) | folds toxic in HCT-116 than in normal VERO cells (HCT-116) | folds toxic in MCF-7 than in ordinary VERO cells (MCF-7) | folds toxic in A549 than in ordinary VERO cells (A549)
NC1=NOC(=O)C1=NNc1ccc(N=Nc2ccccc2)cc1 [Compound 3, 3-Amino-4-{2-[4-(phenyldiazenyl)phenyl]hydrazono}isoxazol-5(4H)-one] | 19 ± 4.4 µM | 16.8 ± 3.7 µM | 17.6 ± 4.5 µM | 25.5 ± 3.5 µM | 3.25 ± 0.5 µM | 2.1 ± 0.25 µM |  |  |  | 
NC1=NNC(=O)C1=NNc1ccc(N=Nc2ccccc2)cc1 [Compound 4, 5-Amino-4-{2-[4-(phenyldiazenyl)phenyl]hydrazono}-2,4-dihydro-3H-pyrazol-3-one] | 10.6 ± 3 µM | 11.3 ± 3.1 µM | 11.3 ± 3.3 µM | 10.8 ± 1.5 µM | 1.85 ± 0.1 µM | 1.2 ± 0.35 µM |  |  |  | 
NC1=NN(c2ccccc2)C(=O)C1=NNc1ccc(N=Nc2ccccc2)cc1 [Compound 5, 5-Amino-2-phenyl-4-{2-[4-(phenyldiazenyl)phenyl]hydrazono}-2,4-dihydro-3H-pyrazol-3-one] | 7.8 ± 0.7 µM | 8.12 ± 0.9 µM | 6.98 ± 1.1 µM | 6.5 ± 1.5 µM | 1.25 ± 0.5 µM | 0.4 ± 0.35 µM | 5.72 fold | 5.53 folds | 6.21 folds | 8.86 folds
NC1=NN(c2ccc([N+](=O)[O-])cc2[N+](=O)[O-])C(=O)C1=NNc1ccc(N=Nc2ccccc2)cc1 [Compound 6, 5-Amino-2-(2,4-dinitrophenyl)-4-{2-[4-(phenyldiazenyl)phenyl]hydrazono}-2,4-dihydro-3H-pyrazol-3-one] | 8.17 ± 2.6 µM | 10.1 ± 2.9 µM | 9.11 ± 2.7 µM | 5.88 ± 0.5 µM | 1.6 ± 0.5 µM | 0.35 ± 0.15 µM | 5.49 fold | 4.47 folds | 4.59 folds | 6.54 folds
NC(=O)N1N=C(N)C(N=Nc2ccc(N=Nc3ccccc3)cc2)C1=O (stereo not drawn) [Compound 7, 3-Amino-5-oxo-4-{[4-(phenyldiazenyl)phenyl]diazenyl}-4,5-dihydro-1H-pyrazole-1-carboxamide] | 15.6 ± 3.5 µM | 17.5 ± 4 µM | 14.2 ± 3.5 µM | 8.5 ± 0.5 µM | 2.35 ± 0.2 µM | 0.9 ± 0.25 µM |  |  |  | 
N#CC(=NNc1ccc(N=Nc2ccccc2)cc1)c1nc(=S)[nH][nH]1 [Compound 9, N-[4-(Phenyldiazenyl)phenyl]-5-thioxo-2,5-dihydro-1H-1,2,4-triazole-3-carbohydrazonoyl-cyanide] | 14.5 ± 2.8 µM | 16.8 ± 3.3 µM | 13.8 ± 3 µM | 12.2 ± 2.5 µM | 2 ± 0.1 µM | 1.35 ± 0.15 µM |  |  |  | 
N#Cc1nn(-c2ccc(N=Nc3ccccc3)cc2)c(=S)n(-c2ccccc2)c1=O [Compound 10, 5-Oxo-4-phenyl-2-[4-(phenyldiazenyl)phenyl]-3-thioxo-2,3,4,5-tetrahydro-1,2,4-triazine-6-carbonitrile] | 6.81 ± 1.9 µM | 9.23 ± 2.2 µM | 7.28 ± 2.4 µM | 7.35 ± 1.5 µM | 1.5 ± 0.1 µM | 0.5 ± 0.25 µM | 6.39 fold | 4.96 folds | 5.81 folds | 8.67 folds
N#Cc1nn(-c2ccc(N=Nc3ccccc3)cc2)c(=S)[nH]c1=O [Compound 11, 5-Oxo-2-[4-(phenyldiazenyl)phenyl]-3-thioxo-2,3,4,5-tetrahydro-1,2,4-triazine-6-carbonitrile] | 35.6 ± 4.8 µM | 37.9 ± 4.6 µM | 39.2 ± 4.8 µM | 30.2 ± 3.5 µM | 3.85 ± 0.5 µM | 2.5 ± 0.35 µM |  |  |  | 
N#Cc1nn(-c2ccc(N=Nc3ccccc3)cc2)c(=O)[nH]c1=O [Compound 12, 3,5-Dioxo-2-[4-(phenyldiazenyl)phenyl]-2,3,4,5-tetrahydro-1,2,4-triazine-6-carbonitrile] | 21.1 ± 4.9 µM | 22.5 ± 4.8 µM | 30.2 ± 4.8 µM | 9.25 ± 1.5 µM | 3.5 ± 0.5 µM | 0.95 ± 0.35 µM |  |  |  | 
N#Cc1nn(-c2ccc(N=Nc3ccccc3)cc2)c(=N)[nH]c1=O [Compound 13, 3-Imino-5-oxo-2-[4-(phenyldiazenyl)phenyl]-2,3,4,5-tetrahydro-1,2,4-triazine-6-carbonitrile] | 20.5 ± 4.2 µM | 20.1 ± 3.5 µM | 23.1 ± 3.8 µM | 15.5 ± 2.5 µM | 3.35 ± 0.5 µM | 1.5 ± 0.15 µM |  |  |  | 
N#Cc1nn(-c2ccc(N=Nc3ccccc3)cc2)c(=N)n(S(=O)(=O)c2ccc(N)cc2)c1=O [Compound 14, 4-[(4-Aminophenyl)sulfonyl]-3-imino-5-oxo-2-[4-(phenyldiazenyl)phenyl]-2,3,4,5-tetrahydro-1,2,4-triazine-6-carbonitrile] | 6.23 ± 2.3 µM | 8.44 ± 2.6 µM | 6.37 ± 2.5 µM | 5.15 ± 1.5 µM | 0.95 ± 0.1 µM | 0.25 ± 0.15 µM | 6.86 fold | 7.68 folds | 5.76 folds | 10.72 folds
C#Cc1cccc(Nc2ncnc3cc(OCCOC)c(OCCOC)cc23)c1 [Erlotinib, reference compound] |  |  | 8.2 ± 0.34 µM |  |  |  |  |  |  | 
CNC(=O)c1cc(Oc2ccc(NC(=O)Nc3ccc(Cl)c(C(F)(F)F)c3)cc2)ccn1 [Sorafenib, reference compound] | 4 ± 0.33 µM |  |  |  |  |  |  |  |  | 

Source: publication PMC10695193 (RSC Advances, 2023)
